The target in one data set is T1, Cav3.2 channel (Homo sapiens, UniProt O95180).
T1 construct: expressed in transfected cells; host or cells: HEK-293, tetracycline inducible expression system (Invitrogen)
Kind of data set: Whole-cell patch clamp of T-type Cav3.2 channel expressed in HEK293 cells. The class given is cell-based. A general note: Patch clamp records ionic current or voltage across a cell membrane.

Data set [1] deals with Cav2.2 (N-type Ca channel) (Homo sapiens, UniProt Q00975). Kind of data set: Patch clamp of Cav2.2 N-type Ca channel. The class given is cell-based. The note with it: Table 2.
Data set [2] is described as follows: Metabolic stability in rat liver microsomes. The format is in vitro ADME. The text has this:
(§1) In vitro data of metabolic stability and protein binding as well as in vivo pharmacokinetic data for compounds of the invention can be generated using the techniques disclosed in, e.g., Obach, R. S. et al., J. Pharmacol. Exp. Ther. 283(1): 46-58 (1997), which is hereby incorporated by reference in its entirety. Various biological, pharmacokinetic and other properties of the compounds, including hepatic microsomal stability, determination of metabolites, binding to proteins such as plasma protein binding, and in vivo studies, including single-dose and multi-dose pharmacokinetic studies, can be determined using the protocols described in that publication and the publications cited therein. Other aspects and advantages of the present invention will become apparent from the above detailed description, as illustrated by way of example of the principles of the invention. The scope of the invention is to be defined by the claims appended hereto and their equivalents. Selected pharmacokinetic studies in vitro and in vivo in rats were performed for preferred compounds, for example EXAMPLE-128 and compared with two reference compounds ML218 and Z944 by a contract research organization (BioDuro, Inc., San Diego, US). Tables 3A and 3B summarize some of the in vitro and vivo pharmacodynamic and pharmacokinetic parameters, respectively.
Background: Liver microsomes are vesicles of endoplasmic reticulum, rich in cytochrome P450 enzymes.

Data set [3] can be described thus: Plasma protein binding, human. The class given is in vitro ADME. The note with it: for fraction unbound: read-out: PPB % (Human) (converted).
From the text: as §1

The nature of the next data set: Plasma stability, rat. The format is in vitro ADME.
From the text: as §1

Where [4] appears, read: Table 1, tested at at least 4 concentrations, read-out: IC50.
The mark [5] stands for this setting: Table 3A, read-out: Cav3.2 IC50.
Where [6] appears, read: read-out: Rat Liver Microsomes Clint (μL/min/mg protein).
Setting [7] is: read-out: Rat Liver Microsomes t1/2.

Read-outs that look alike come from different tables or passages of the source. Some results are limits rather than exact numbers.

In general, IC50 refers to the concentration that gives 50% inhibition.

Sequence of Cav2.2 (N-type Ca channel) (Q00975 whole entry): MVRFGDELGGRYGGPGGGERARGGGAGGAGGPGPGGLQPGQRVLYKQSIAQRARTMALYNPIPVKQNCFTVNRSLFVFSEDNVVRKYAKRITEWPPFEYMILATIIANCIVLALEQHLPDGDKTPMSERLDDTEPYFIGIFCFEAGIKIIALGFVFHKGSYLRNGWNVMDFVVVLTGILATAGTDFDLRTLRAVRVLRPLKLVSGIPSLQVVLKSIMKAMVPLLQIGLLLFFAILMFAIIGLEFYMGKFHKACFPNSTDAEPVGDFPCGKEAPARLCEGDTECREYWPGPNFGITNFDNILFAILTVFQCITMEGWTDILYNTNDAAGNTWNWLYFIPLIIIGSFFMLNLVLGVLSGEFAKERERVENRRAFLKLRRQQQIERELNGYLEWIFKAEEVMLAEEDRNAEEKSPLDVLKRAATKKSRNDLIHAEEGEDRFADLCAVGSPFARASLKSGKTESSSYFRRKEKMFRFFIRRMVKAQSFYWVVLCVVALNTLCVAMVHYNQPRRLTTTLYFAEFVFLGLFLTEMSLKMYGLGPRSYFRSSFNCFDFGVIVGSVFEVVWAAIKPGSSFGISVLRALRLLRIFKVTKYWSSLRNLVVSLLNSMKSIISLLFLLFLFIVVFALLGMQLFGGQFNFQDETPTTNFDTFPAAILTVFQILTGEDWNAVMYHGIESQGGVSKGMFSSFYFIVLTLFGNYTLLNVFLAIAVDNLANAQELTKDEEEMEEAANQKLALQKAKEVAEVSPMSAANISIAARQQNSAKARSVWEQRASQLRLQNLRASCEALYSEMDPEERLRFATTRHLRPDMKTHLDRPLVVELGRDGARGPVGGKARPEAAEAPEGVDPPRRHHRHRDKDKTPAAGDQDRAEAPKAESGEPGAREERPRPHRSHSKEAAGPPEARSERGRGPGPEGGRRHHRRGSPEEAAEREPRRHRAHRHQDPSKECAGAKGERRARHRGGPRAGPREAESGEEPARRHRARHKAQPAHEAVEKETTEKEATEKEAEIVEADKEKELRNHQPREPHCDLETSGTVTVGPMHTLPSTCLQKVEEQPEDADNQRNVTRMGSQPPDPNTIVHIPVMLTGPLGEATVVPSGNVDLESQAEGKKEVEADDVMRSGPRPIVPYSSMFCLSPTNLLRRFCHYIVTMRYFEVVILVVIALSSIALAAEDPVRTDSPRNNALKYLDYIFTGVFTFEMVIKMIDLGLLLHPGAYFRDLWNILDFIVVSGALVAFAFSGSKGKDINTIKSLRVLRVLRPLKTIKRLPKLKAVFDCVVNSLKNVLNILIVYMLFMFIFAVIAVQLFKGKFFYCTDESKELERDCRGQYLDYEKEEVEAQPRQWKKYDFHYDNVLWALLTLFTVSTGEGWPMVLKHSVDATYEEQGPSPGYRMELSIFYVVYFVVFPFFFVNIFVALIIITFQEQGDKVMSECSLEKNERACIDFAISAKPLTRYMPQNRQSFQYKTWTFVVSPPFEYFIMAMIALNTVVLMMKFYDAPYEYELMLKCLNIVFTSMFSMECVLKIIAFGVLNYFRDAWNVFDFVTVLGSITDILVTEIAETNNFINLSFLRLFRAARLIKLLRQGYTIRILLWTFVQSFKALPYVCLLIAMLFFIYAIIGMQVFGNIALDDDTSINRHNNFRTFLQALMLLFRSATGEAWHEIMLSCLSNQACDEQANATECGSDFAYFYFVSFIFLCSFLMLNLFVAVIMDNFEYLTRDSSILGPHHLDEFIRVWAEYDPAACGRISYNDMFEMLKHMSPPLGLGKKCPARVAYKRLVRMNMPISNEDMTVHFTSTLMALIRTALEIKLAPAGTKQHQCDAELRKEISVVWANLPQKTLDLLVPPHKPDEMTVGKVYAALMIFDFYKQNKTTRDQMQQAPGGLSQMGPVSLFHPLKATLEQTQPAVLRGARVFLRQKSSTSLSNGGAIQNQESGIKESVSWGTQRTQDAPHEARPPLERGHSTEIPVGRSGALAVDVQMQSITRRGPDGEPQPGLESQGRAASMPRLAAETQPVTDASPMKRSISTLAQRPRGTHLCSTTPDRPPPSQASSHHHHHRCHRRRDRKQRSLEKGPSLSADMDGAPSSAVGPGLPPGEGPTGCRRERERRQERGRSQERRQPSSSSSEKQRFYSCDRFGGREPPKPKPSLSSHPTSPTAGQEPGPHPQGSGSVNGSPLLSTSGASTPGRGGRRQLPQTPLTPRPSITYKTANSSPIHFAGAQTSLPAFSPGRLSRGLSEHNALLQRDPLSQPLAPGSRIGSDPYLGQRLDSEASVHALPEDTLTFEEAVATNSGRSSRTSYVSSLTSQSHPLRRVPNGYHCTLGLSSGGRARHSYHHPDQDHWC
Sequence of Cav2.2 (N-type Ca channel) (P54289 25-1103 partner): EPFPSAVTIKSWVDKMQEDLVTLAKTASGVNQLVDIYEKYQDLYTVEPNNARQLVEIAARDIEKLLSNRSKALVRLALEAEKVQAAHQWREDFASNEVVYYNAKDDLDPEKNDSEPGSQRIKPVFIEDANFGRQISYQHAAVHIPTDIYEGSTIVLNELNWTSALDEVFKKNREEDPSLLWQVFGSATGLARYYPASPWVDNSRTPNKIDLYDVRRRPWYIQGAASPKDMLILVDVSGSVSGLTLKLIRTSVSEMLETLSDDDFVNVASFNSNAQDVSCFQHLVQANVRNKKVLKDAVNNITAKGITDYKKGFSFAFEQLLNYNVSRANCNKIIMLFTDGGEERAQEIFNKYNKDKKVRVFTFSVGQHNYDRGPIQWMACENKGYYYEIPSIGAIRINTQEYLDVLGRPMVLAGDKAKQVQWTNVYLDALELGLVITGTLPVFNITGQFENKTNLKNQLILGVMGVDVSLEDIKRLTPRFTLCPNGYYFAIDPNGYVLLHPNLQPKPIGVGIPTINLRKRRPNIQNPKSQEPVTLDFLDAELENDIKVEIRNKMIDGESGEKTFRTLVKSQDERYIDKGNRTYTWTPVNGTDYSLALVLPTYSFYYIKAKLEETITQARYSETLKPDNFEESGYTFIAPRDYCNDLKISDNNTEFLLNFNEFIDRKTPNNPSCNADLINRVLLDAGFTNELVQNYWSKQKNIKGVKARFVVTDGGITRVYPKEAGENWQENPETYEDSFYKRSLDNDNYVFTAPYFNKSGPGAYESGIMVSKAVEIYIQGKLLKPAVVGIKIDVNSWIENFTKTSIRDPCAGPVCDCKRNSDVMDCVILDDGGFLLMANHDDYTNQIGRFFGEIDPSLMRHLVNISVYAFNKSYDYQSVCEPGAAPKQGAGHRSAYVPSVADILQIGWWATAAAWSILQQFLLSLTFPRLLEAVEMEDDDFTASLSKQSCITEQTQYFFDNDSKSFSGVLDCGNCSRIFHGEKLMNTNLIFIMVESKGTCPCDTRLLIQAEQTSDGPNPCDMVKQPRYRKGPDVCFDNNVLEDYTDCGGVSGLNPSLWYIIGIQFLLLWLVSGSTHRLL
Sequence of Cav2.2 (N-type Ca channel) (Q08289 whole entry partner): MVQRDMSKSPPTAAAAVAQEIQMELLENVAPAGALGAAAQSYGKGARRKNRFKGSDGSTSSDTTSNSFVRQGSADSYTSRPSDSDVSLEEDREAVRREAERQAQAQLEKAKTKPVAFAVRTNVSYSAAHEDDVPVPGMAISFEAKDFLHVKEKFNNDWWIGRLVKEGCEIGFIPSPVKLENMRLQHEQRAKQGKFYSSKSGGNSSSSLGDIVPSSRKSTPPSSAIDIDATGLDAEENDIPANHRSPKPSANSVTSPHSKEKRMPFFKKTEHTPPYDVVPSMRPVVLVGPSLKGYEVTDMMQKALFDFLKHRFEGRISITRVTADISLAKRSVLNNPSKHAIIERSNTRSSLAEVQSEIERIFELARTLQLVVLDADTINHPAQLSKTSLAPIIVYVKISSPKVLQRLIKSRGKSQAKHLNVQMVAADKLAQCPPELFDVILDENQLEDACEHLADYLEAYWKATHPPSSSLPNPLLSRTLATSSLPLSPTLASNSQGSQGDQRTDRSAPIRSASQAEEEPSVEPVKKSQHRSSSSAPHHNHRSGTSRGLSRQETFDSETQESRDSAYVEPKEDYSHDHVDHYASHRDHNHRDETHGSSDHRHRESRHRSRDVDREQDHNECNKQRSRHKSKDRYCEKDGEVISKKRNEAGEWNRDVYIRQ

For the compound `CC(C)(C)NC(=O)CN1CCC2(CC1)CC2NC(=O)c1cc(F)cc(Cl)c1` (single isomer, unassigned) [Example 128, (S)—N-(6-(2-(tert-Butylamino)-2-oxoethyl)-6-azaspiro[2.5]octan-1-yl)-3-chloro-5-fluorobenzamide or (R)—N-(6-(2-(tert-Butylamino)-2-oxoethyl)-6-azaspiro[2.5]octan-1-yl)-3-chloro-5-fluorobenzamide], the IC50 on Cav3.2 channel (setting [4]) was 0.11 µM; at Cav3.2 channel (Table 2, read-out: Cav3.2 IC50), 0.09 µM; on Cav3.2 channel (setting [5]) it was 0.089 µM; in data set [1], over 10 µM. Further, the “% Use-Dep (use-dependent drug action)” value at Cav3.2 channel (Table 3A) came out at 21.3%. Also, the half-life in data set [2] was determined as 5.25 h. In data set [2], this compound had a microsomal CLint of 2.2 µL/min/mg. Besides, in data set [3], the recovery turned out to be 98.3%. Also, in data set [3], the fraction unbound is 0.043. Further, the “Plasma Stability @ 5 h % (Rat)” value in the data set “Plasma stability, rat” came to 98.3%.
On to `CC(C)(C)NC(=O)CN1CCC2(CC1)C[C@H]2C(=O)Nc1cc(C(F)(F)F)cc(C(F)(F)F)c1` (single isomer, unassigned) [Example 132, (R)—N-(3,5-Bis(trifluoromethyl)phenyl)-6-(2-(tert-butylamino)-2-oxoethyl)-6-azaspiro[2.5]octane-1-carboxamide or (S)—N-(3,5-Bis(trifluoromethyl)phenyl)-6-(2-(tert-butylamino)-2-oxoethyl)-6-azaspiro[2.5]octane-1-carboxamide], for which the IC50 on Cav3.2 channel (read-out: Cav3.2 IC50) stood at 0.14 µM; at Cav3.2 channel (read-out: IC50), 0.14 µM; in data set [1], 3.1 µM.
Consider `CC(C)(C)CCN1C[C@@H]2[C@@H](CNC(=O)c3cc(Cl)cc(Cl)c3)[C@@H]2C1` [ML218, 3,5-Dichloro-N-[[(1α,5α,6-exo,6α)-3-(3,3-dimethylbutyl)-3-azabicyclo[3.1.0]hex-6-yl]methyl]benzamide, reference compound], for which the IC50 is 0.31 µM at Cav3.2 channel (Table 2, read-out: Cav3.2 IC50); 0.31 µM on Cav3.2 channel (setting [5]); 20.7 µM in data set [1]. Also, the “% Use-Dep (use-dependent drug action)” value on Cav3.2 channel (Table 3A) was 19.2%. For the same compound, the microsomal CLint in data set [2] (setting [6]) amounted to 5.5 µL/min/mg. The half-life in data set [2] (setting [7]) came to 2.1 h. In addition, the recovery in data set [3] was 97.1%. The fraction unbound in data set [3] was 0.046. In addition, in the data set “Plasma stability, rat”, the “Plasma Stability @ 5 h % (Rat)” value is reported as 99.2%.
With `CC(C)(C)NC(=O)CN1CCC2(CC1)C[C@H]2NC(=O)C12CC3CC(CC(C3)C1)C2` (single isomer, unassigned) [Example 145, N—((R)-6-(2-(tert-butylamino)-2-oxoethyl)-6-azaspiro[2.5]octan-1-yl)adamantane-1-carboxamide or N—((S)-6-(2-(tert-butylamino)-2-oxoethyl)-6-azaspiro[2.5]octan-1-yl)adamantane-1-carboxamide], the half-maximal inhibitory concentration (IC50) turned out to be 0.14 µM on Cav3.2 channel (setting [4]); 0.14 µM at Cav3.2 channel (Table 2, read-out: Cav3.2 IC50); 15.6 µM in data set [1].
With `CC(C)(C)CCN1CCC2(CC1)CC2NC(=O)c1cc(F)cc(Cl)c1` (centres unmarked) [Example 28, 3-Chloro-N-(6-(3,3-dimethylbutyl)-6-azaspiro[2.5]octan-1-yl)-5-fluorobenzamide], the IC50 at Cav3.2 channel (setting [4]) came out at 0.07 µM; on Cav3.2 channel (Table 2, read-out: Cav3.2 IC50), 0.07 µM; in data set [1] it was 9.4 µM.
As for `CC(C)(C)NC(=O)CN1CCC(CNC(=O)c2cc(F)cc(Cl)c2)CC1` [Z944, reference compound], the IC50 on Cav3.2 channel (Table 2, read-out: Cav3.2 IC50) was 0.19 µM; on Cav3.2 channel (setting [5]), 0.2 µM; in data set [1], over 30 µM. Moreover, the “% Use-Dep (use-dependent drug action)” value on Cav3.2 channel (Table 3A) was found to be 17.6%. The microsomal CLint in data set [2] (setting [6]) is 13.2 µL/min/mg. Also, in data set [2] (setting [7]), the half-life came to 0.875 h. Also, the recovery in data set [3] was found to be 93.6%. In addition, in data set [3], the fraction unbound is 0.064. Further, in “Plasma stability, rat”, the “Plasma Stability @ 5 h % (Rat)” value is 100%.
Consider `CC(C)(C)NC(=O)CN1CCC2(CC1)C[C@H]2NC(=O)c1cc(F)cc(Cl)c1` (single isomer, unassigned) [Example 129, (R)—N-(6-(2-(tert-Butylamino)-2-oxoethyl)-6-azaspiro[2.5]octan-1-yl)-3-chloro-5-fluorobenzamide or (S)—N-(6-(2-(tert-Butylamino)-2-oxoethyl)-6-azaspiro[2.5]octan-1-yl)-3-chloro-5-fluorobenzamide], for which the 50% inhibitory concentration (IC50) was 0.87 µM on Cav3.2 channel (setting [4]); 0.87 µM at Cav3.2 channel (Table 2, read-out: Cav3.2 IC50); over 30 µM in data set [1].
Regarding `CC(C)(C)NC(=O)CN1CCC2(CC1)CC2C(=O)Nc1cc(F)cc(C(F)(F)F)c1` (centres unmarked) [Example 141, 6-(2-(tert-Butylamino)-2-oxoethyl)-N-(3-fluoro-5-(trifluoromethyl)phenyl)-6-azaspiro[2.5]octane-1-carboxamide], the IC50 on Cav3.2 channel (setting [4]) turned out to be 0.18 µM; on Cav3.2 channel (Table 2, read-out: Cav3.2 IC50), 0.18 µM; in data set [1], 5.1 µM.
In the case of `CC(C)(C)CCN1CCC2(CC1)C[C@H]2NC(=O)c1cc(C(F)(F)F)ccc1Cl` (single isomer, unassigned) [Example 147, (R)-2-Chloro-N-(6-(3,3-dimethylbutyl)-6-azaspiro[2.5]octan-1-yl)-5-(trifluoromethyl)benzamide or (S)-2-Chloro-N-(6-(3,3-dimethylbutyl)-6-azaspiro[2.5]octan-1-yl)-5-(trifluoromethyl)benzamide], the IC50 worked out at 0.13 µM on Cav3.2 channel (setting [4]); 0.13 µM on Cav3.2 channel (Table 2, read-out: Cav3.2 IC50); 5.6 µM in data set [1].
Take `CC(C)(C)NC(=O)CN1CCC2(CC1)C[C@H]2NC(=O)c1cc(F)cc(C(F)(F)F)c1` (single isomer, unassigned) [Example 130, (R)—N-(6-(2-(tert-Butylamino)-2-oxoethyl)-6-azaspiro[2.5]octan-1-yl)-3-fluoro-5-(trifluoromethyl)benzamide or (S)—N-(6-(2-(tert-Butylamino)-2-oxoethyl)-6-azaspiro[2.5]octan-1-yl)-3-fluoro-5-(trifluoromethyl)benzamide]: the IC50 on Cav3.2 channel (setting [4]) is 0.18 µM; at Cav3.2 channel (Table 2, read-out: Cav3.2 IC50) it was 0.18 µM; in data set [1] it was over 30 µM.
`CC(C)(C)CCN1CCC2(CC1)C[C@H]2NC(=O)c1cc(C(F)(F)F)cc(C(F)(F)F)c1` (single isomer, unassigned) [Example 146, (R)—N-(6-(3,3-dimethylbutyl)-6-azaspiro[2.5]octan-1-yl)-3,5-bis(trifluoromethyl)benzamide or (S)—N-(6-(3,3-dimethylbutyl)-6-azaspiro[2.5]octan-1-yl)-3,5-bis(trifluoromethyl)benzamide]: the IC50 came out at 0.07 µM on Cav3.2 channel (setting [4]); 0.07 µM on Cav3.2 channel (Table 2, read-out: Cav3.2 IC50); 2.5 µM in data set [1].
`O=C(Nc1nnc(-c2ccccc2)o1)c1ccc(Cl)s1` [Example 115, 5-Chloro-N-(5-phenyl-1,3,4-oxadiazol-2-yl)thiophene-2-carboxamide]: at Cav3.2 channel (setting [4]), the 50% inhibitory concentration (IC50) was determined as 0.93 µM.
As for `CC(C)(C)NC(=O)CN1CCC2(CC1)C[C@H]2NC(=O)c1cc(Cl)cc(Cl)c1` (single isomer, unassigned) [Example 57, (R)—N-(6-(2-(tert-Butylamino)-2-oxoethyl)-6-azaspiro[2.5]octan-1-yl)-3,5-dichlorobenzamide or (S)—N-(6-(2-(tert-Butylamino)-2-oxoethyl)-6-azaspiro[2.5]octan-1-yl)-3,5-dichlorobenzamide], the IC50 is 0.06 µM at Cav3.2 channel (setting [4]); 0.06 µM on Cav3.2 channel (Table 2, read-out: Cav3.2 IC50); over 30 µM in data set [1].
As to `CC(C)(C)NC(=O)CN1CCC2(CC1)CC2NC(=O)c1cc(F)cc(Cl)c1` (centres unmarked) [Example 17, N-(6-(2-(tert-Butylamino)-2-oxoethyl)-6-azaspiro[2.5]octan-1-yl)-3-chloro-5-fluorobenzamide], the IC50 on Cav3.2 channel (setting [4]) was 0.24 µM; at Cav3.2 channel (Table 2, read-out: Cav3.2 IC50), 0.24 µM; in data set [1], over 30 µM.
Regarding `CC(C)(C)NC(=O)CN1CCC2(CC1)C[C@H]2NC(=O)c1cc(C(F)(F)F)cc(C(F)(F)F)c1` (single isomer, unassigned) [Example 144, ((R)—N-(6-(2-(tert-butylamino)-2-oxoethyl)-6-azaspiro[2.5]octan-1-yl)-3,5-bis(trifluoromethyl)benzamide or (S)—N-(6-(2-(tert-butylamino)-2-oxoethyl)-6-azaspiro[2.5]octan-1-yl)-3,5-bis(trifluoromethyl)benzamide], the IC50 on Cav3.2 channel (setting [4]) was 0.08 µM; at Cav3.2 channel (Table 2, read-out: Cav3.2 IC50), 0.08 µM; in data set [1] it was 12.3 µM.

Values taken from patent US10562857B2 (AFASCI, Inc., priority 2015, dated 2020).
